Tests used:
[1] = system: ANAP-incorporated TRPM8 mutants; assay: patch-clamp test of function of ANAP-incorporated TRPM8 mutants; assay type: cell-based, mouse; settings: Menthol 1 mM
Procedure: L-ANAP methyl ester was purchased from AsisChem. pANAP vector was purchased from Addgene. ANAP was incorporated into TRPM8 by introducing a TAG amber stop codon mutation as previously reported. Briefly, after co-transfection of both TRPM8 and pANAP vectors, ANAP was directly added to the culture medium to the final concentration of 20 µM. After 1–2 days, ANAP-containing culture medium was completely changed. Cells were further cultured in ANAP-free medium overnight before experiments.
(§1) Patch-clamp recordings were performed with a HEKA EPC10 amplifier controlled by PatchMaster software (HEKA). Whole-cell recordings were performed at ±80 mV. Patch pipettes were prepared from borosilicate glass and fire-polished to resistance of ~4 MΩ. For whole-cell recording, serial resistance was compensated by 60%. For single-channel recordings, patch pipettes were fire-polished to a higher resistance of 6-to-10 MΩ and then recorded in the inside-out configuration. To maximize the chance of obtaining a patch with only one channel, single-channel recordings were performed about 8 h after transfection. A solution with 130 mM NaCl, 10 mM glucose, 0.2 mM EDTA, and 3 mM HEPES (pH 7.2) was used in both bath and pipette for either whole-cell or single-channel recordings. Membrane potential was clamped at +80 mV for single-channel recordings. Current was sampled at 10 kHz and filtered at 2.9 kHz. All recordings were performed at room temperature (22 °C) with the maximum variation of 1 °C.
Supplementary Table 1. ANAP- incorporated TRPM8 mutants. The function of these
ANAP- incorporated mutants was accessed by patch- clamp recordings. Menthol (1 mM)
was perfused to activate a mutant channel.

[2] = biological target: T1, TRPM8 point mutants at sites 840, 910, 916, 972 (Mus musculus, UniProt Q8R4D5); assay: Φ analysis based on single-channel recordings; assay type: cell-based
T1 construct: expressed in transfected cells; host or cells: HEK293T
Procedure: as §1
(§2) We followed the principle of Φ-analysis described in published literatures in detail[17],[36],[48]. […] At such a high concentration, only the patches showing the activities of one channel was used for analysis. Single-channel data were processed by the QuB software[49] version 1.4 (ref. [50]). Opening and closing events were detected during idealization with the half amplitude method. Using the simple close ↔ open model (Fig. 6a), the forward and backward rates were determined with a deadtime of 0.3-to-0.4 ms. The equilibrium constant was calculated as the ratio of forward and backward rates. Opening rates and equilibrium constants for each mutant at the same residue site were plotted in log scale (Brønsted plot) before fitting with a linear function to determine the Φ value.

[3] = biological target: T2, TRPM8 point mutants at sites 840, 910, 916, 972 (Mus musculus, UniProt Q8R4D5, A910G); assay: Φ analysis based on single-channel recordings; assay type: cell-based; settings: TRPM8 910G, mean of single-channel recordings (200u, 500u, 1mM)
T2 construct: expressed in transfected cells; host or cells: HEK293T
Procedure: as §1, §2

[4] = biological target: T3, TRPM8 point mutants at sites 840, 910, 916, 972 (Mus musculus, UniProt Q8R4D5, A910I); assay: Φ analysis based on single-channel recordings; assay type: cell-based; settings: TRPM8 910I, mean of single-channel recordings (1mM)
T3 construct: expressed in transfected cells; host or cells: HEK293T
Procedure: as §1, §2

[5] = biological target: T4, TRPM8 point mutants at sites 840, 910, 916, 972 (Mus musculus, UniProt Q8R4D5, A910V); assay: Φ analysis based on single-channel recordings; assay type: cell-based; settings: TRPM8 910V, mean of single-channel recordings (1mM, 500um)
T4 construct: expressed in transfected cells; host or cells: HEK293T
Procedure: as §1, §2

[6] = biological target: T5, TRPM8 point mutants at sites 840, 910, 916, 972 (Mus musculus, UniProt Q8R4D5, P916F); assay: Φ analysis based on single-channel recordings; assay type: cell-based; settings: TRPM8 916F, mean of single-channel recordings
T5 construct: expressed in transfected cells; host or cells: HEK293T
Procedure: as §1, §2

[7] = biological target: T6, TRPM8 point mutants at sites 840, 910, 916, 972 (Mus musculus, UniProt Q8R4D5, T840D); assay: Φ analysis based on single-channel recordings; assay type: cell-based; settings: TRPM8 840D, mean of single-channel recordings (500um, 1mM)
T6 construct: expressed in transfected cells; host or cells: HEK293T
Procedure: as §1, §2

[8] = biological target: T7, TRPM8 point mutants at sites 840, 910, 916, 972 (Mus musculus, UniProt Q8R4D5, T840N); assay: Φ analysis based on single-channel recordings; assay type: cell-based; settings: TRPM8 840N, mean of single-channel recordings (1mM, 5mM)
T7 construct: expressed in transfected cells; host or cells: HEK293T
Procedure: as §1, §2

[9] = biological target: T8, TRPM8 point mutants at sites 840, 910, 916, 972 (Mus musculus, UniProt Q8R4D5, V972I); assay: Φ analysis based on single-channel recordings; assay type: cell-based; settings: TRPM8 972I, mean of single-channel recordings
T8 construct: expressed in transfected cells; host or cells: HEK293T
Procedure: as §1, §2

[10] = system: TRPM8 point mutants at sites 840, 910, 916, 972; assay: Φ analysis based on single-channel recordings; assay type: cell-based, mouse; settings: for Φ value: 5 mM menthol, single-channel, +80 mV
Procedure: as §1, §2

[11] = TRPM8 840T (recordings 1S-AF/2S-AF, 500um, 1mM)
[12] = TRPM8 910A (recordings 1S-AF/2S-AF, 500um, 1mM)
[13] = TRPM8 916P (recordings 1S-AF/2S-AF, 500um, 1mM)
[14] = TRPM8 972V (recordings 1S-AF/2S-AF, 500um, 1mM)
[15] = TRPM8 840A, mean of single-channel recordings (500um)
[16] = TRPM8 910T, mean of single-channel recordings (1mM, 5mM)
[17] = TRPM8 972L, mean of single-channel recordings

T1 sequence (Q8R4D5 whole entry, change not shown): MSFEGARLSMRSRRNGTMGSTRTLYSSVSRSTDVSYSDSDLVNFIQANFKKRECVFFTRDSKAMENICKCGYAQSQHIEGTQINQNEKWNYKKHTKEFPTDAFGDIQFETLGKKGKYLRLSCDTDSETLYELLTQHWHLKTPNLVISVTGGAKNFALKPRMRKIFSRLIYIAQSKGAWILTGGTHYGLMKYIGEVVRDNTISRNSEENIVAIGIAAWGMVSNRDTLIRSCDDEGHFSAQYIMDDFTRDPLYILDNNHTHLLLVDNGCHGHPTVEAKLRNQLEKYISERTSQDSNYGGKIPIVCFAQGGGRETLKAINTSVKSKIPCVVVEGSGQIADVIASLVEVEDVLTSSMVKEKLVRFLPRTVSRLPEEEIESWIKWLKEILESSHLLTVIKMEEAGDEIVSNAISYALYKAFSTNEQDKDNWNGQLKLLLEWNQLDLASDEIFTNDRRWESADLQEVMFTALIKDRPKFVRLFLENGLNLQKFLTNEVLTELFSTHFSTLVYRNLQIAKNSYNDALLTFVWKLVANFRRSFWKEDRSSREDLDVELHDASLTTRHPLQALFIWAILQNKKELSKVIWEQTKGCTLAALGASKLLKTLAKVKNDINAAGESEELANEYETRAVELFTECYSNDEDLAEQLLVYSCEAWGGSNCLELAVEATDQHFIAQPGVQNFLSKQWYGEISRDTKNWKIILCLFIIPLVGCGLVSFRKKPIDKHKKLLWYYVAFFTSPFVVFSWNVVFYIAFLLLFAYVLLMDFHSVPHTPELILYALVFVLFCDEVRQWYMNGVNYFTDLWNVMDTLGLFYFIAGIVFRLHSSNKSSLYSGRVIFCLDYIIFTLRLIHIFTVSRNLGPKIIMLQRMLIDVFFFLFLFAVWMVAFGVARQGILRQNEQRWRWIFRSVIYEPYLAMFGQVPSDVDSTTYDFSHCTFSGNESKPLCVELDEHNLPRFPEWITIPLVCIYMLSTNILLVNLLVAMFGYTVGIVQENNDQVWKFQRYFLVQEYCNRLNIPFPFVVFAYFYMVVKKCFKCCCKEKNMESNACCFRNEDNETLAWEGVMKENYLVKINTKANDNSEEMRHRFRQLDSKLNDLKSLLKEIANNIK
T7 sequence (Q8R4D5 whole entry T840N): as the sequence (Q8R4D5 whole entry, change not shown) above, with T840N counted along it
T6 sequence (Q8R4D5 whole entry T840D): as the sequence (Q8R4D5 whole entry, change not shown) above, with T840D counted along it
T2 sequence (Q8R4D5 whole entry A910G): as the sequence (Q8R4D5 whole entry, change not shown) above, with A910G counted along it
T3 sequence (Q8R4D5 whole entry A910I): as the sequence (Q8R4D5 whole entry, change not shown) above, with A910I counted along it
T4 sequence (Q8R4D5 whole entry A910V): as the sequence (Q8R4D5 whole entry, change not shown) above, with A910V counted along it
T5 sequence (Q8R4D5 whole entry P916F): as the sequence (Q8R4D5 whole entry, change not shown) above, with P916F counted along it
T8 sequence (Q8R4D5 whole entry V972I): as the sequence (Q8R4D5 whole entry, change not shown) above, with V972I counted along it

CC(C)[C@@H]1CC[C@@H](C)C[C@H]1O [menthol, (−)-menthol]
Menthol activation ([1]; A875ANAP (S5)): YES | Menthol activation ([1]; D920ANAP (Between S5 and S6)): YES | Menthol activation ([1]; I962ANAP (S6)): YES | Menthol activation ([1]; L774ANAP (S2)): YES | Menthol activation ([1]; L817ANAP (S3)): YES | Menthol activation ([1]; L864ANAP (S5)): YES | Menthol activation ([1]; L939ANAP (Between S5 and S6)): YES | Menthol activation ([1]; N789ANAP (S2S3 linker)): YES | Menthol activation ([1]; N821ANAP (S3-S4 linker)): YES | Menthol activation ([1]; N852ANAP (S4)): YES | Menthol activation ([1]; N947ANAP (Between S5 and S6)): YES | Menthol activation ([1]; P734ANAP (S1)): YES | Menthol activation ([1]; P952ANAP (Between S5 and S6)): YES | Menthol activation ([1]; P958ANAP (Between S5 and S6)): YES | Menthol activation ([1]; S819ANAP (S3-S4 linker)): YES | Menthol activation ([1]; S820ANAP (S3-S4 linker)): YES | Menthol activation ([1]; S823ANAP (S3-S4 linker)): YES | Menthol activation ([1]; S824ANAP (S4)): YES | Menthol activation ([1]; S921ANAP (Between S5 and S6)): YES | Menthol activation ([1]; S966ANAP (S6)): YES | Menthol activation ([1]; T795ANAP (S2S3 linker)): YES | Menthol activation ([1]; V791ANAP (S2S3 linker)): YES | Menthol activation ([1]; V876ANAP (S5)): YES | Menthol activation ([1]; W954ANAP (Between S5 and S6)): YES | Menthol activation ([1]; Y787ANAP (S2)): YES | Menthol activation ([1]; Y808ANAP (S3)): YES | logKeqave [2, 11]: -0.1349 | ratesave (mean log forward rates) [2, 11]: 2.916 | logKeqave [2, 12]: -0.1349 | ratesave (mean log forward rates) [2, 12]: 2.916 | logKeqave [2, 13]: -0.1349 | logratesave [2, 13]: 2.916 | logKeqave [2, 14]: -0.1349 | logratesave [2, 14]: 2.916 | logKeqave [3]: -0.02911 | ratesave (mean log forward rates) [3]: 2.893 | logKeqave [4]: -1.154 | ratesave (mean log forward rates) [4]: 2.135 | logKeqave [5]: 0.7613 | ratesave (mean log forward rates) [5]: 3.348 | logKeqave [6]: 0.4532 | logratesave [6]: 3.166 | logKeqave [7]: 0.4314 | ratesave (mean log forward rates) [7]: 3.1375 | logKeqave [8]: 0.1255 | ratesave (mean log forward rates) [8]: 3.014 | logKeqave [9]: -0.5254 | logKeqave [10, 15]: -0.9923 | ratesave (mean log forward rates) [10, 15]: 2.126 | logKeqave [10, 16]: 0.1885 | ratesave (mean log forward rates) [10, 16]: 3.0067 | logKeqave [10, 17]: 0.4054 | logratesave [10, 17]: 3.126 | phi from single-channel recording ([10]; site 840): 0.7339 | Φ value ([10]; site 840): 0.73 | phi from single-channel recording ([10]; site 910): 0.6331 | Φ value ([10]; site 910): 0.63 | phi from single-channel recording ([10]; site 916): 0.4253 | Φ value ([10]; site 916): 0.42 | phi from single-channel recording ([10]; site 972): 0.711 | Φ value ([10]; site 972): 0.71
